These results are taken from PubChem BioAssay (NCI).

Test systems include COLO 205 colon; HCC-2998 colon; MOLT-4 leukemia; NCI-H460 lung; NCI-H522 lung; OVCAR-8 ovarian; SF-295 CNS; SK-MEL-5 melanoma; UACC-257 melanoma; UO-31 renal.
What all share (assay): NCI-60 cell line screen, 48 h

Each structure is given as a SMILES string.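 Growth conditions: 96-well plates. Treatment: test compound, 48 hours, 5 concentrations. Analysis: linear interpolation between bracketing concentrations; unreached endpoints set to highest concentration. Abbreviation: GI50, concentration required for 50% inhibition of growth. Definition used: TGI = concentration required for complete inhibition of growth.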

Regarding `COC(=O)[C@@H]1CCCN1C(=O)[C@@H]1CCCN1C(=O)[C@@H](Cc1c[nH]c2ccccc12)NC(=S)Nc1cc(C(F)(F)F)cc(C(F)(F)F)c1`, the GI50 with COLO 205 colon was 2.41 µM; with HCC-2998 colon, 2.9 µM; in the test on MOLT-4 leukemia, 3.16 µM; with NCI-H460 lung, 4.77 µM; with NCI-H522 lung it was 3.98 µM; in the test on OVCAR-8 ovarian it was 5.83 µM. In addition, the GI50 in the test on SF-295 CNS is 6.48 µM; with SK-MEL-5 melanoma, 2.13 µM; with UACC-257 melanoma it was 4.06 µM; in the test with UO-31 renal, 5.44 µM. Also, the TGI with COLO 205 colon is 5.5 µM; in the test on HCC-2998 colon it was 9.05 µM; in the test on MOLT-4 leukemia, over 100 µM; in the test on NCI-H460 lung, over 100 µM; in the test with NCI-H522 lung, 26.5 µM; in the test on OVCAR-8 ovarian it was over 100 µM. Also, the TGI in the test on SF-295 CNS was over 100 µM; in the test with SK-MEL-5 melanoma, 5.52 µM; with UACC-257 melanoma it was 35.3 µM; in the test with UO-31 renal it was over 100 µM.
For the compound `C=C[C@]1(C)C=C2C(=O)[C@@]3(O)OC[C@@]4(CCCC(C)(C)C43O)C2(O)C(O)C1` (stereo not given in full), the GI50 with COLO 205 colon is 1.54 µM; in the test on HCC-2998 colon it was 17.2 µM; in the test with MOLT-4 leukemia, 3.09 µM; in the test with NCI-H460 lung, 12.5 µM; in the test on NCI-H522 lung, 0.631 µM; with OVCAR-8 ovarian it was 4.03 µM. In addition, the GI50 was 21.6 µM in the test on SF-295 CNS, 14.5 µM in the test with SK-MEL-5 melanoma, 2.06 µM in the test with UACC-257 melanoma and 1.34 µM with UO-31 renal. Moreover, the TGI in the test with COLO 205 colon was 3.08 µM; with HCC-2998 colon it was 31.5 µM; in the test with MOLT-4 leukemia, 15.2 µM; in the test on NCI-H460 lung it was 28.2 µM; in the test on NCI-H522 lung it was 2.84 µM; in the test on OVCAR-8 ovarian, 15 µM. In addition, the TGI in the test with SF-295 CNS is over 70.5 µM; with SK-MEL-5 melanoma, 27.8 µM; in the test on UACC-257 melanoma, 4.21 µM; in the test on UO-31 renal, 3 µM.
As for `CCOC(=O)c1cnn(-c2ccnc3c(C(F)(F)F)cccc23)c1N`, the GI50 with COLO 205 colon, in the test with HCC-2998 colon, in the test on MOLT-4 leukemia, in the test with NCI-H460 lung, in the test on NCI-H522 lung and with OVCAR-8 ovarian was over 100 µM each time. Besides, the GI50 in the test on SF-295 CNS, in the test with SK-MEL-5 melanoma, in the test with UACC-257 melanoma and in the test with UO-31 renal was over 100 µM throughout. Also, the TGI in the test with COLO 205 colon, with HCC-2998 colon, in the test on MOLT-4 leukemia, in the test on NCI-H460 lung, in the test with NCI-H522 lung and with OVCAR-8 ovarian was over 100 µM each time. Moreover, the TGI in the test with SF-295 CNS, in the test with SK-MEL-5 melanoma, in the test with UACC-257 melanoma and in the test with UO-31 renal was over 100 µM in each case.
For `O=c1[nH]cc(OCC(F)(F)F)c(=O)[nH]1`, the TGI in the test on COLO 205 colon, with HCC-2998 colon, in the test with MOLT-4 leukemia, in the test on NCI-H460 lung, with NCI-H522 lung and in the test on OVCAR-8 ovarian was over 100 µM throughout. The TGI in the test on SF-295 CNS, with SK-MEL-5 melanoma, in the test with UACC-257 melanoma and with UO-31 renal was over 100 µM each time.
`C[C@H](CS(C)(=O)=O)Nc1ncc2cc(Oc3ccc(F)cc3F)c(=O)n(C)c2n1`: the GI50 in the test with COLO 205 colon, with HCC-2998 colon, in the test with MOLT-4 leukemia, in the test on NCI-H460 lung, with NCI-H522 lung and with OVCAR-8 ovarian was over 25 µM throughout. Moreover, the GI50 with SF-295 CNS, in the test with SK-MEL-5 melanoma, in the test on UACC-257 melanoma and with UO-31 renal was over 25 µM throughout. For the same compound, the TGI in the test with COLO 205 colon, with HCC-2998 colon, with MOLT-4 leukemia, in the test with NCI-H460 lung, in the test on NCI-H522 lung and in the test on OVCAR-8 ovarian was over 25 µM throughout. Further, the TGI with SF-295 CNS, with SK-MEL-5 melanoma, in the test on UACC-257 melanoma and in the test on UO-31 renal was over 25 µM each time.
For `S=c1ssc(Sc2ccccn2)c1Cl`, the GI50 in the test with COLO 205 colon is 19.2 µM; in the test with HCC-2998 colon it was 3.97 µM; with MOLT-4 leukemia it was 2.53 µM; in the test on NCI-H460 lung, 15.2 µM; in the test on NCI-H522 lung, 6.99 µM; in the test with OVCAR-8 ovarian, 20.3 µM. Further, the GI50 with SF-295 CNS was 16.5 µM; with SK-MEL-5 melanoma it was 3.74 µM; with UACC-257 melanoma it was 22.2 µM; with UO-31 renal, 6.51 µM. For the same compound, the TGI with COLO 205 colon stood at 38.7 µM; in the test on HCC-2998 colon, 15.1 µM; in the test on MOLT-4 leukemia, 5.84 µM; with NCI-H460 lung, 28.5 µM; in the test with NCI-H522 lung it was 21.9 µM; in the test with OVCAR-8 ovarian, 40.8 µM. For the same compound, the TGI in the test with SF-295 CNS is 34.5 µM; in the test on SK-MEL-5 melanoma it was 15.3 µM; in the test on UACC-257 melanoma, 57.9 µM; in the test on UO-31 renal, over 100 µM.
Take `CN(C)C(=O)C1CCC(=C2C(=O)OC(C)(C)OC2=O)N1C` (stereo not given): the TGI in the test on COLO 205 colon, with HCC-2998 colon, with MOLT-4 leukemia, with NCI-H460 lung, with NCI-H522 lung and in the test with OVCAR-8 ovarian was over 100 µM in each case. In addition, the TGI with SF-295 CNS, with SK-MEL-5 melanoma, in the test with UACC-257 melanoma and in the test with UO-31 renal was over 100 µM throughout.
On to `O=C1CC2C(=O)N(Cc3ccccc3)C1C(S(=O)(=O)c1ccccc1)C2S(=O)(=O)c1ccccc1` (stereo not given), for which the TGI was determined as 3.18 µM in the test on COLO 205 colon; 20.7 µM in the test on HCC-2998 colon; 7.72 µM in the test with MOLT-4 leukemia; 34.9 µM in the test on NCI-H460 lung; 1.38 µM in the test on NCI-H522 lung; 5.19 µM in the test with OVCAR-8 ovarian. The TGI in the test with SF-295 CNS was determined as 37.4 µM; with SK-MEL-5 melanoma it was 29.2 µM; in the test on UACC-257 melanoma, 3.25 µM; in the test with UO-31 renal, 22.6 µM.
For `COc1ccc2c(c1)C(=O)c1c-2n(CCCN2CCOCC2)c(=O)c2ccccc12`, the GI50 is 2.81 µM in the test with COLO 205 colon; 3.08 µM in the test on HCC-2998 colon; 1.47 µM with MOLT-4 leukemia; 0.561 µM in the test on NCI-H460 lung; 1.52 µM with NCI-H522 lung; 3.45 µM with OVCAR-8 ovarian. Also, the GI50 with SF-295 CNS was 1.35 µM; in the test with SK-MEL-5 melanoma, 1.37 µM; in the test with UACC-257 melanoma it was 4.46 µM; in the test on UO-31 renal it was 0.799 µM. The TGI is over 41 µM in the test with COLO 205 colon; 20.4 µM in the test with HCC-2998 colon; over 100 µM with MOLT-4 leukemia; 3.58 µM in the test with NCI-H460 lung; 13.9 µM in the test on NCI-H522 lung; over 100 µM with OVCAR-8 ovarian. For the same compound, the TGI in the test on SF-295 CNS was 9.71 µM; with SK-MEL-5 melanoma, 2.68 µM; in the test with UACC-257 melanoma, over 31.5 µM; with UO-31 renal, 3.26 µM.
